The structures appear in SMILES notation. pEC50, pKi: −log10 of the molar value.

A short description of assay [1]: Antiviral activity against HIV virus in absence of human serum. Type of assay: functional.
The nature of assay [2]: Antiviral activity against HIV virus in presence of 50% human serum. It counts as functional.
Assay [3] can be described thus: Antiviral activity against HIV virus. It counts as functional.
In assay [4] the target is Human immunodeficiency virus type 1 protease (Human immunodeficiency virus 1, UniProt Q72874). Put plainly: Tested for inhibition of HIV protease.

On to `C=Cc1cccc(S(=O)(=O)N2C[C@@H](O)[C@@H](Cc3ccccc3)N(Cc3cccc(C(=N)NO)c3)C(=O)N2CCCC)c1`, for which the results for the pEC50 in assay [1] and in assay [2] were 6.66 and 5.73, respectively. `O=C1N(Cc2ccc(O)cc2)[C@H](Cc2ccccc2)[C@H](O)CN(S(=O)(=O)c2cc(Cl)cc(Cl)c2)N1Cc1ccc(O)cc1` showed a negative logarithm of the EC50 (pEC50) in assay [3] of 6.17. The molecule `O=C(c1ccccc1)N1C[C@@H](O)[C@@H](Cc2ccccc2)N(Cc2ccc(O)cc2)C(=O)N1Cc1ccc(O)cc1` gave a pKi in assay [4] of 11.00. Regarding `CCCCN1C(=O)N(Cc2cccc(C(=N)NO)c2)[C@H](Cc2ccccc2)[C@H](O)CN1S(=O)(=O)c1cccc(OC)c1`, the pEC50 in assay [2] is 6.25.

In the case of `Cc1ccccc1S(=O)(=O)N1C[C@@H](O)[C@@H](Cc2ccccc2)N(Cc2ccc(O)cc2)C(=O)N1Cc1ccc(O)cc1`, the pEC50 in assay [3] is 6.64. The molecule `O=C1N(Cc2ccc(O)cc2)[C@H](Cc2ccccc2)[C@H](O)CN(S(=O)(=O)c2ccccc2)N1Cc1ccc(O)cc1` showed a pEC50 in assay [3] of 6.35. For the same molecule, in assay [4], the negative logarithm of the Ki (pKi) was 8.86. With `COc1ccc(S(=O)(=O)N2C[C@@H](O)[C@@H](Cc3ccccc3)N(Cc3ccc(O)cc3)C(=O)N2Cc2ccc(O)cc2)cc1`, the pEC50 in assay [3] is 6.12.

For the molecule `CCCCN1C(=O)N(Cc2cccc(C(=N)NO)c2)[C@H](Cc2ccccc2)[C@H](O)CN1S(=O)(=O)c1cccc(O)c1`, the pEC50 in assay [1] was 6.82; in assay [2], 5.59. The molecule `Cc1cccc(S(=O)(=O)N2C[C@@H](O)[C@@H](Cc3ccccc3)N(Cc3ccc(O)cc3)C(=O)N2Cc2ccc(O)cc2)c1` showed a pEC50 in assay [3] of 6.04. The molecule `O=C1N(Cc2ccc(O)cc2)[C@H](Cc2ccccc2)[C@H](O)CN(S(=O)(=O)c2ccc(Cl)c(Cl)c2)N1Cc1ccc(O)cc1` had a pEC50 in assay [3] of 6.03. In the case of `Cc1ccc(S(=O)(=O)N2C[C@@H](O)[C@@H](Cc3ccccc3)N(Cc3ccc(O)cc3)C(=O)N2Cc2ccc(O)cc2)cc1`, in assay [3], the pEC50 is 6.06. On the same count and under the same terms, with `COc1cccc(S(=O)(=O)N2C[C@@H](O)[C@@H](Cc3ccccc3)N(Cc3ccc(O)cc3)C(=O)N2Cc2ccc(O)cc2)c1` the figure was 6.34; with `O=C1N(Cc2ccc(O)cc2)[C@H](Cc2ccccc2)[C@H](O)CN(S(=O)(=O)c2cccc(F)c2)N1Cc1ccc(O)cc1`, 6.23.

In the case of `O=C1N(Cc2ccc(O)cc2)[C@H](Cc2ccccc2)[C@H](O)CN(S(=O)(=O)c2ccc(Cl)cc2Cl)N1Cc1ccc(O)cc1`, in assay [3], the pEC50 was 5.49. As to `CCCCN1C(=O)N(Cc2cccc(C(=N)NO)c2)[C@H](Cc2ccccc2)[C@H](O)CN1S(=O)(=O)c1cccc(/C(C)=N\O)c1`, the pEC50 is 7.70 in assay [1] and 6.40 in assay [2]. In the case of `N#Cc1cccc(S(=O)(=O)N2C[C@@H](O)[C@@H](Cc3ccccc3)N(Cc3ccc(O)cc3)C(=O)N2Cc2ccc(O)cc2)c1`, in assay [3], the pEC50 is 6.70.

Regarding `CCCCN1C(=O)N(Cc2cccc(C(=N)NO)c2)[C@H](Cc2ccccc2)[C@H](O)CN1S(=O)(=O)c1cccc(C(C)O)c1` (stereo not given in full), the pEC50 in assay [1] is 7.40; in assay [2], 6.07. `CCCCN1C(=O)N(Cc2cccc(C(=N)NO)c2)[C@H](Cc2ccccc2)[C@H](O)CN1S(=O)(=O)c1cccc([N+](=O)[O-])c1`: the results for the pEC50 in assay [1] and in assay [2] were 7.40 and 6.43, respectively. `O=C1N(Cc2ccc(O)cc2)[C@H](Cc2ccccc2)[C@H](O)CN(S(=O)(=O)c2ccc(C(F)(F)F)cc2)N1Cc1ccc(O)cc1` showed a pEC50 in assay [3] of 5.96. As to `O=C1N(Cc2ccc(O)cc2)[C@H](Cc2ccccc2)[C@H](O)CN(S(=O)(=O)c2cccc(Cl)c2Cl)N1Cc1ccc(O)cc1`, the pEC50 in assay [3] was 6.25.

Consider `CCCCN1C(=O)N(Cc2cccc(C(=N)NO)c2)[C@H](Cc2ccccc2)[C@H](O)CN1S(=O)(=O)c1cccc(C(C)=O)c1`, for which the pEC50 in assay [1] was 6.82; in assay [2], 5.96. Consider `O=C1N(Cc2ccc(O)cc2)[C@H](Cc2ccccc2)[C@H](O)CN(S(=O)(=O)c2cccc(Br)c2)N1Cc1ccc(O)cc1`, for which, in assay [3], the pEC50 is 6.38.

Molecule `O=C1N(Cc2ccc(O)cc2)[C@H](Cc2ccccc2)[C@H](O)CN(S(=O)(=O)c2ccc(Cl)cc2)N1Cc1ccc(O)cc1` showed a pEC50 in assay [3] of 5.96.

For `CCCCN1C(=O)N(Cc2cccc(C(=N)NO)c2)[C@H](Cc2ccccc2)[C@H](O)CN1S(=O)(=O)c1cccc(N)c1`, the pEC50 in assay [1] was 7.52; in assay [2] it was 5.62.

With `CCCCN1C(=O)N(Cc2cccc(C(=N)NO)c2)[C@H](Cc2ccccc2)[C@H](O)CN1S(=O)(=O)c1cccc(Br)c1`, the pEC50 in assay [1] is 6.80; in assay [2] it was 5.60. `O=C1N(Cc2ccc(O)cc2)[C@H](Cc2ccccc2)[C@H](O)CN(S(=O)(=O)c2cccc([N+](=O)[O-])c2)N1Cc1ccc(O)cc1`: the pEC50 in assay [3] was 6.09.

For the origin of these results see ChEMBL document CHEMBL1137138, “Synthesis and antiviral activity of P1' arylsulfonamide azacyclic urea HIV protease inhibitors” (Bioorg Med Chem Lett, 2004).
